Assay results from the NIST ThermoML archive (doi:10.1016/j.jct.2017.01.019).
± gives the expanded uncertainty stated by the source.

Settings: Liquid, Closed cell (Static) method

With `FCC(F)(F)F` [1,1,1,2-tetrafluoroethane] the “vapor or sublimation pressure” value (243.15 K) was 84.5 ± 1.6 kPa, the “vapor or sublimation pressure” value (248.15 K) was 106.4 ± 1.6 kPa and the “vapor or sublimation pressure” value (253.15 K) was 132.7 ± 1.6 kPa. For the same compound, the “vapor or sublimation pressure” value (258.15 K) was 163.9 ± 1.6 kPa, the “vapor or sublimation pressure” value (263.15 K) was 200.6 ± 1.6 kPa and the “vapor or sublimation pressure” value (268.15 K) was 243.3 ± 1.6 kPa. For the same compound, the “vapor or sublimation pressure” value (273.15 K) was 292.7 ± 1.7 kPa, the “vapor or sublimation pressure” value (278.15 K) was 349.6 ± 1.7 kPa and the “vapor or sublimation pressure” value (283.15 K) was 414.3 ± 1.7 kPa. The “vapor or sublimation pressure” value (288.15 K) was 488.2 ± 1.8 kPa and the “vapor or sublimation pressure” value (293.15 K) was 570.7 ± 1.8 kPa.
With `N` [ammonia] the “vapor or sublimation pressure” value (243.15 K) was 119.7 ± 1.6 kPa, the “vapor or sublimation pressure” value (248.15 K) was 151.7 ± 1.6 kPa and the “vapor or sublimation pressure” value (253.15 K) was 190.2 ± 1.6 kPa. The “vapor or sublimation pressure” value (258.15 K) was 236.4 ± 1.6 kPa, the “vapor or sublimation pressure” value (263.15 K) was 290.7 ± 1.7 kPa and the “vapor or sublimation pressure” value (268.15 K) was 354.8 ± 1.7 kPa. The “vapor or sublimation pressure” value (273.15 K) was 429.3 ± 1.7 kPa, the “vapor or sublimation pressure” value (278.15 K) was 515.5 ± 1.8 kPa and the “vapor or sublimation pressure” value (283.15 K) was 615.1 ± 1.8 kPa. The “vapor or sublimation pressure” value (288.15 K) was 728.5 ± 1.9 kPa and the “vapor or sublimation pressure” value (293.15 K) was 857.1 ± 2 kPa.
